{"source": "patent US20250282825A1", "about": "“NOVEL CYCLIC COMPOUNDS, METHOD FOR THEIR PREPARATION AND THE USE OF SAID CYCLIC COMPOUNDS IN COSMETIC PREPARATIONS” (priority 2020, published 2025)", "key": {"S. aureus N315 LugIEFGH": {"system": "S. aureus N315 LugIEFGH", "format": "cell-based, Staphylococcus aureus", "settings": "for recognized and transported by the lugdunin transporters LugIEFGH: derived from MIC ratio, FIG. 5"}, "[1]": {"system": "human primary keratinocytes", "experiment": "WST-1 assay (cell viability/cytotoxicity)", "format": "cell-based", "settings": "3.1 μg/ml, 6 h, 37° C., keratinocytes from three donors, versus DMSO solvent control", "method": "To determine possible cytotoxicity, a WST-1 assay was first performed using human primary keratinocytes from three different donors according to the manufacturer's instructions. The colorimetric assay measures cell viability of cells and can therefore be used to determine cytotoxic compounds incubated with the cells. The greater the number of viable cells, the higher the activity of mitochondrial dehydrogenases and the greater the amount of dye formed in the assay. […] Cell culture supernatants were then removed, and WST1 reagent was added to the keratinocytes. […] DMSO served as a negative control (solvent control)."}, "[2]": {"system": "human primary keratinocytes", "experiment": "LDH assay (lactate dehydrogenase release)", "format": "cell-based", "settings": "3.1 μg/ml, 24 h, 37° C., keratinocytes from three donors, relative to Triton-X (100%)", "method": "To verify the results, an LDH assay was performed using human primary keratinocytes from three different donors according to the manufacturer's instructions. This assay is based on the detection of the enzyme lactate dehydrogenase, which is released into the cell culture medium when the cell membrane is damaged, where it can then be detected. […] Subsequently, 50 μl of each cell culture supernatant was transferred to a 96well plate, mixed with 50 μl of LDH reagent and measured (according to manufacturer's instructions). […] DMSO served as a negative control (solvent control)."}}, "data": [{"compound": "carbonyl cyanide-3-chrlophenylhydrazone [CCCP, reference compound]", "values": [{"measurement": "recognized and transported by the lugdunin transporters LugIEFGH", "setting": "S. aureus N315 LugIEFGH", "value": "neither I.1 nor CCCP, is recognized and transported"}]}, {"compound": "CC(C)C[C@H]1NC(=O)[C@H](Cc2c[nH]c3ccccc23)NC(=O)[C@@H](C(C)C)NC(=O)[C@H]2NC(SC2(C)C)[C@H](C(C)C)NC(=O)[C@@H](Cc2c[nH]c3ccccc23)NC(=O)[C@H](C(C)C)NC1=O", "note": "[I.3]", "values": [{"measurement": "virus inhibition", "setting": "SARS-CoV-2; A549 cells, SARS-CoV-2 MOI=1.0, concentration 3.7 μM", "value": "about 80%"}, {"measurement": "antiviral activity relative to lugdunin", "setting": "SARS-CoV-2; higher antiviral activity than lugdunin, from EC50 values", "value": "approximately 9 fold"}, {"measurement": "EC50", "setting": "SARS-CoV-2; read-out: EC50 (SARS-CoV-2 antiviral activity), A549 cells, SARS-CoV-2 MOI=1.0", "value": 2220, "unit": "nM"}, {"measurement": "cytotoxic effect in WST-1 assay", "setting": "[1]", "value": "no such cytotoxic effect"}, {"measurement": "cytotoxic effect in LDH assay", "setting": "[2]", "value": "no significant cytotoxic effect"}]}, {"compound": "CC(C)C[C@H]1NC(=O)[C@H](Cc2c[nH]c3ccccc23)NC(=O)[C@@H](C(C)C)NC(=O)[C@H]2NC(SC2(C)C)[C@H](C(C)C)NC(=O)[C@@H](C(C)C)NC(=O)[C@H](C(C)C)NC1=O", "note": "[I.1]", "values": [{"measurement": "formation of resistance", "setting": "S. aureus N315 LugIEFGH; conclusion from MIC ratio", "value": "no formation of resistance is to be expected"}, {"measurement": "recognized and transported by the lugdunin transporters LugIEFGH", "setting": "S. aureus N315 LugIEFGH", "value": "neither I.1 nor CCCP, is recognized and transported"}, {"measurement": "MIC ratio MIC(S. aureus LugIEFGH)/MIC(S. aureus Wt)", "setting": "S. aureus N315 LugIEFGH; ratio close to 1 = no resistance increase by the transporters, lugdunin value is the median", "value": 1.064}]}]}
